The source of these data is ChEMBL document CHEMBL1126513, “Quinuclidine-based NK-1 antagonists I: 3-benzyloxy-1-azabicyclo[2.2.2]octanes” (Bioorg Med Chem Lett, 1993).

This test has as its target Substance-P receptor (Homo sapiens, UniProt P25103). Briefly: Displacement of [125]Substance P Binding from human Neurokinin NK1 receptor in CHO Cells.

Chain of Substance-P receptor (P25103 whole entry): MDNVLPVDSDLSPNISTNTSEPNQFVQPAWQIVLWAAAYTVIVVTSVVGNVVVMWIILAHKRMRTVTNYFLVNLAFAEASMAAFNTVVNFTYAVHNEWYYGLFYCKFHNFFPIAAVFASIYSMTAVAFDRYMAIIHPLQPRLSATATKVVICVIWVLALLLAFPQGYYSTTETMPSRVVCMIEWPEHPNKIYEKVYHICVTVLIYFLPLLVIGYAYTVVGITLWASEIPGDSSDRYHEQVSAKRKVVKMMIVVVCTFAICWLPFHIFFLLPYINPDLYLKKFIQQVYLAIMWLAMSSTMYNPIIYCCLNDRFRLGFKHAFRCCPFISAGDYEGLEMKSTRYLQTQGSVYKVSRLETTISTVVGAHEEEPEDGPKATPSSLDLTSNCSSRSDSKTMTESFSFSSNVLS

In general, IC50 refers to the concentration needed to halve the response being measured. Lower therefore signals greater potency. Take `Cc1cccc(CO[C@H]2C3CCN(CC3)[C@H]2C(c2ccccc2)c2ccccc2)c1`: the concentration for half-maximal inhibition (IC50) worked out at 21 nM.
The compound `O=C(N[C@H]1C2CCN(CC2)[C@H]1C(c1ccccc1)c1ccccc1)c1ccccc1` yielded an IC50 of over 1000 nM.
Turning to `O=S(=O)(N[C@H]1C2CCN(CC2)[C@H]1C(c1ccccc1)c1ccccc1)c1ccccc1`, the concentration for half-maximal inhibition (IC50) was over 1000 nM.
Next, `c1ccc(CCN[C@H]2C3CCN(CC3)[C@H]2C(c2ccccc2)c2ccccc2)cc1`: 700 nM; `O=C(Nc1ccccc1)N[C@H]1C2CCN(CC2)[C@H]1C(c1ccccc1)c1ccccc1`: over 1000 nM.
Next, `Cc1ccccc1CO[C@H]1C2CCN(CC2)[C@H]1C(c1ccccc1)c1ccccc1`: 183 nM; `Cc1ccc(C)c(CO[C@H]2C3CCN(CC3)[C@H]2C(c2ccccc2)c2ccccc2)c1`: 48 nM; `O=C(Nc1ccccc1)O[C@H]1C2CCN(CC2)[C@H]1C(c1ccccc1)c1ccccc1`: over 1000 nM.
`S=C(Nc1ccccc1)N[C@H]1C2CCN(CC2)[C@H]1C(c1ccccc1)c1ccccc1` had an IC50 of over 1000 nM.
Next, `O=C(N[C@H]1C2CCN(CC2)[C@H]1C(c1ccccc1)c1ccccc1)Oc1ccccc1`: over 1000 nM; `c1ccc(CO[C@H]2C3CCN(CC3)[C@H]2C(c2ccccc2)c2ccccc2)cc1`: 110000 nM; `Cc1ccc(CO[C@H]2C3CCN(CC3)[C@H]2C(c2ccccc2)c2ccccc2)cc1`: 290 nM.
On to `Cc1ccc(CO[C@H]2C3CCN(CC3)[C@H]2C(c2ccccc2)c2ccccc2)cc1C`, for which the IC50 is 197 nM.
The same measure for `c1ccc(CN[C@H]2C3CCN(CC3)[C@H]2C(c2ccccc2)c2ccccc2)cc1`: 150 nM.
Compound `Cc1cc(C)cc(CO[C@H]2C3CCN(CC3)[C@H]2C(c2ccccc2)c2ccccc2)c1` [L-706125] came in with a concentration for half-maximal inhibition (IC50) of 1 nM.
